The results in this text go back to ChEMBL document CHEMBL1201862, “PubChem BioAssay data set” (2004).

Each structure is given as a SMILES string.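 Tested at 5 concentrations; 48 h exposure; 96-well plates; endpoints linearly interpolated, else capped at highest concentration. GI50 is the concentration that inhibits growth by half.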 The source made the active and inactive calls. Cut-off read from the data, not from the text of the source: active = GI50 up to about 1.1 µM and inactive = higher.

Holding throughout (assay): DTP human tumour cell line panel, 48 h
Experiment [1] deals with SR.
For experiment [2], the system named is CAKI-1.
Experiment [3] has as its system T47D.
In experiment [4] the test system is HCT-15.
The subject of experiment [5] is HCC 2998.
Experiment [6] has as its system CCRF-CEM.
Experiment [7] has as its system SK-MEL-5.
In experiment [8] the test system is A498.
The test system of experiment [9] is DU-145.
Experiment [10] has as its system LOX IMVI.
Experiment [11] has as its system U-251.
For experiment [12], the system named is HL-60.
In experiment [13] the test system is MDA-MB-231.
The subject of experiment [14] is SK-OV-3.
For experiment [15], the system named is RXF 393.
Experiment [16] has as its system NCI-H226.
The test system of experiment [17] is SF-539.
Experiment [18] relates to Hs-578T.
The subject of experiment [19] is UO-31.
The test system of experiment [20] is SW-620.

With `Cc1ccc2nc(CC(=O)c3ccc4ccccc4c3)c(O)nc2c1`, the GI50 in experiment [1] is > 100 µM (inactive); in experiment [2] it was > 100 µM (inactive); in experiment [3], > 100 µM (inactive); in experiment [4] it was over 100 µM; in experiment [5] it was > 100 µM (inactive); in experiment [6] it was > 100 µM (inactive). The GI50 in experiment [7], in experiment [8], in experiment [9], in [10], in experiment [11] and in experiment [12] was > 100 µM (inactive) each time. Further, the GI50 in [13], in experiment [14], in experiment [15], in experiment [16], in experiment [17] and in [18] was > 100 µM (inactive) in each case. Besides, the GI50 in [19] and in [20] was > 100 µM (inactive) each time.

For `CSc1c(C#N)c(=O)[nH]c2[nH]nc(C)c12`, the GI50 in [1] is > 100 µM (inactive); in experiment [2], 22.1 µM (inactive); in [3] it was > 100 µM (inactive); in experiment [4], over 100 µM; in experiment [5], > 100 µM (inactive); in experiment [6], > 100 µM (inactive). Besides, the GI50 in experiment [7], in experiment [8], in experiment [9], in experiment [10], in experiment [11] and in experiment [12] was > 100 µM (inactive) each time. Also, the GI50 in experiment [13], in [14], in [15], in experiment [16], in experiment [17] and in [18] was > 100 µM (inactive) throughout. Also, the GI50 in experiment [19] and in experiment [20] was > 100 µM (inactive) in each case.
